Laboratory results taken from ChEMBL document CHEMBL4354842, “A Series of Compounds Bearing a Dipyrido-Pyrimidine Scaffold Acting as Novel Human and Insect Pest Chitinase Inhibitors” (J Med Chem, 2020).
Active and inactive are the calls of the source. The calls are words filed in the database; no cut-off is given here.

Legend:
Mus musculus [1] = test: Antifibrotic activity in bleomycin-induced C57BL/6 mouse model of pulmonary fibrosis assessed as effect on IL33 expression at 2 ug/mouse, ip administered for 11 days and measured on day 12 post treatment by RT-qPCR analysis; type: functional, organism-based
Mus musculus [2] = test: Antifibrotic activity in bleomycin-induced C57BL/6 mouse model of pulmonary fibrosis assessed as increase in number of PDL2+ alveolar macrophages in lungs at 2 ug/mouse, ip administered for 11 days and measured on day 12 post treatment by flow cytometric analysis; type: functional, organism-based
[3] = target: T1, Acidic mammalian chitinase (Homo sapiens, UniProt Q9BZP6); test: Inhibition of human acidic mammalian chitinase catalytic domain overexpressed in Pichia pastoris at 10 uM using 4MU-(GlcNAc)2 as substrate after 30 mins by fluorescence based microplate reader analysis
Target sequence in this assay (Q9BZP6 22-476 limits assumed): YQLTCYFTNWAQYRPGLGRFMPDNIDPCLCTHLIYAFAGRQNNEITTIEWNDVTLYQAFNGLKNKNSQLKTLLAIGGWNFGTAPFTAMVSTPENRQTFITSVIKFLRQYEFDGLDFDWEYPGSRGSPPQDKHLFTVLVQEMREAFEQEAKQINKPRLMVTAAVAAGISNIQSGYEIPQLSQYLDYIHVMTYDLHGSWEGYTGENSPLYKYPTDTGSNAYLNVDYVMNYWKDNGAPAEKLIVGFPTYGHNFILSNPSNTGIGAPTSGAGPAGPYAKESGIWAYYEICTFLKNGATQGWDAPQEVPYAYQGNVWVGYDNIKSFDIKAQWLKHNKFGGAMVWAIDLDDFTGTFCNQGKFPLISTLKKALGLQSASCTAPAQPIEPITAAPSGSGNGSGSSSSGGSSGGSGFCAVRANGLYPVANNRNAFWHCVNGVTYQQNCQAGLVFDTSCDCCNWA

Mus musculus [4] = test: Antifibrotic activity in bleomycin-induced C57BL/6 mouse model of pulmonary fibrosis assessed as effect on Areg expression at 2 ug/mouse, ip administered for 11 days and measured on day 12 post treatment by RT-qPCR analysis; type: functional, organism-based
[5] = target: Chitotriosidase-1 (Mus musculus) (UniProt Q9D7Q1); test: Inhibition of chitinase in mouse BALF at 1 ug using 4-MU-(GlcNAc)2 substrate as substrate after 15 mins relative to control
Chain of Chitotriosidase-1 (Mus musculus) (Q9D7Q1 22-464 limits assumed): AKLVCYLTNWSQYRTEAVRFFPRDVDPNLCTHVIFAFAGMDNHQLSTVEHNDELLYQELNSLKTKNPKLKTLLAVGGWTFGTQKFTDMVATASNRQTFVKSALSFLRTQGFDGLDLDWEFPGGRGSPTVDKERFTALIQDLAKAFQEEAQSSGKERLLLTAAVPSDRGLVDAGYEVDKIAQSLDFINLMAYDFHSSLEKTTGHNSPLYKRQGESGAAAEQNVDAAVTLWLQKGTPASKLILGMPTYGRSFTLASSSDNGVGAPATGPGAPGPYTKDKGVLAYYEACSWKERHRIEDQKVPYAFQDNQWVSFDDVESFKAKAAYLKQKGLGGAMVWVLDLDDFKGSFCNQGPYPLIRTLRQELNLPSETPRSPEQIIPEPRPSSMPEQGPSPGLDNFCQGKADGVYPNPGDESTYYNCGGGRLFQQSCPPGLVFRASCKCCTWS

Chitotriosidase-1 [6] = target: T2, Chitotriosidase-1 (Homo sapiens, UniProt Q13231); test: Inhibition of human CHIT1 catalytic domain overexpressed in Pichia pastoris at 10 uM using 4MU-(GlcNAc)2 as substrate after 30 mins by fluorescence based microplate reader analysis
Target sequence in this assay (Q13231 22-466 limits assumed): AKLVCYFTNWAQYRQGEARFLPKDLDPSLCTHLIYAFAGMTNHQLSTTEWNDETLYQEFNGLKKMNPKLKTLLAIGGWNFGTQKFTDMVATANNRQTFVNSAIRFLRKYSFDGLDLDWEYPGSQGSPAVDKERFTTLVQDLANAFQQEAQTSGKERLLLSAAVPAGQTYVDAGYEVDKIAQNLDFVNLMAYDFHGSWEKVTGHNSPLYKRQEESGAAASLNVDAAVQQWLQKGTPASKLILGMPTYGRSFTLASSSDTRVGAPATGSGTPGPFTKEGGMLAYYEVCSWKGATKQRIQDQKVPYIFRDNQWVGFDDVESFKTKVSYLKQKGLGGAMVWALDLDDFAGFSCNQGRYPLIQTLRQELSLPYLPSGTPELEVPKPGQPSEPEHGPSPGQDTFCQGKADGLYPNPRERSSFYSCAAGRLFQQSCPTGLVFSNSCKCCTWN

Mus musculus [7] = test: In vivo inhibition of human chitinase in C57BL/6 mouse assesed as reduction in bleomycin-induced chitinase level in BALF at 2 ug/mouse, ip administered for 11 days and measured on day 12 by necropsy analysis; type: functional
Mus musculus [8] = test: Antifibrotic activity in bleomycin-induced C57BL/6 mouse model of pulmonary fibrosis assessed as increase in number of interstitial macrophages in lungs at 2 ug/mouse, ip administered for 11 days and measured on day 12 post treatment by flow cytometric analysis; type: functional, organism-based
Mus musculus [9] = test: Antifibrotic activity in bleomycin-induced C57BL/6 mouse model of pulmonary fibrosis assessed as effect on IL13 expression at 2 ug/mouse, ip administered for 11 days and measured on day 12 post treatment by RT-qPCR analysis; type: functional, organism-based
Mus musculus [10] = test: Antifibrotic activity in bleomycin-induced C57BL/6 mouse model of pulmonary fibrosis assessed as effect on Chit1 expression at 2 ug/mouse, ip administered for 11 days and measured on day 12 post treatment by RT-qPCR analysis; type: functional, organism-based
Mus musculus [11] = test: Antifibrotic activity in bleomycin-induced C57BL/6 mouse model of pulmonary fibrosis assessed as increase in number of monocytes in lungs at 2 ug/mouse, ip administered for 11 days and measured on day 12 post treatment by flow cytometric analysis; type: functional, organism-based
[12] = target: 3',5'-cyclic-AMP phosphodiesterase 4D (Homo sapiens) (UniProt Q08499); test: Inhibition of PDE4D2 (unknown origin) at 10 uM relative to control
Chain of 3',5'-cyclic-AMP phosphodiesterase 4D (Homo sapiens) (Q08499 whole entry): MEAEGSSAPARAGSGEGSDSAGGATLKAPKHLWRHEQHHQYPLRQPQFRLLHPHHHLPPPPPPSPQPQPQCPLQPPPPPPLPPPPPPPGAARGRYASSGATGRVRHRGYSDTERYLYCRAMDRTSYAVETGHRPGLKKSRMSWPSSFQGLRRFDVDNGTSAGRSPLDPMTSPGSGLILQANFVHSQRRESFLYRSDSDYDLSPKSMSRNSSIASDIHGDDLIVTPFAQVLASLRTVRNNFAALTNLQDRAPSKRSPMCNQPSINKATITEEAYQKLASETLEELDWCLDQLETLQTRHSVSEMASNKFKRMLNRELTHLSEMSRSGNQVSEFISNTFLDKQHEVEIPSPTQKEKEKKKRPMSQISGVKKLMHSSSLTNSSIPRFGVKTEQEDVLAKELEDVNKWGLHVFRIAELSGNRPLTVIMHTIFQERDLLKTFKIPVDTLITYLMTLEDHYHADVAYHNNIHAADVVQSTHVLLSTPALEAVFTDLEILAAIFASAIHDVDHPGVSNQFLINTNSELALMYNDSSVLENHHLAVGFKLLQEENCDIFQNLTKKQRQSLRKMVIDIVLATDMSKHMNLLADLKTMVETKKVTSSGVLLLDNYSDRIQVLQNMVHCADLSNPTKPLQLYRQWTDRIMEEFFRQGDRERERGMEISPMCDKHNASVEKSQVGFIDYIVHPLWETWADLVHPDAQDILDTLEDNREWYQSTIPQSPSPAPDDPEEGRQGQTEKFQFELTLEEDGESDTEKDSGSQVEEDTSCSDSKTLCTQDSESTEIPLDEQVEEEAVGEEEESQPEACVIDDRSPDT

[13] = target: Chitotriosidase-1 (Mus musculus) (UniProt Q9D7Q1); test: Inhibition of chitinase in mouse BALF at 40 ug using 4-MU-(GlcNAc)2 substrate as substrate after 15 mins relative to control
[14] = target: T3, Chitinase B (Serratia marcescens) (UniProt P11797); test: Inhibition of Serratia marcescens chitinase b catalytic domain overexpressed in Escherichia coli BL21(DE3) cells at 1 uM using 4MU-(GlcNAc)2 as substrate after 30 mins by fluorescence based microplate reader analysis
T3 sequence (whole entry): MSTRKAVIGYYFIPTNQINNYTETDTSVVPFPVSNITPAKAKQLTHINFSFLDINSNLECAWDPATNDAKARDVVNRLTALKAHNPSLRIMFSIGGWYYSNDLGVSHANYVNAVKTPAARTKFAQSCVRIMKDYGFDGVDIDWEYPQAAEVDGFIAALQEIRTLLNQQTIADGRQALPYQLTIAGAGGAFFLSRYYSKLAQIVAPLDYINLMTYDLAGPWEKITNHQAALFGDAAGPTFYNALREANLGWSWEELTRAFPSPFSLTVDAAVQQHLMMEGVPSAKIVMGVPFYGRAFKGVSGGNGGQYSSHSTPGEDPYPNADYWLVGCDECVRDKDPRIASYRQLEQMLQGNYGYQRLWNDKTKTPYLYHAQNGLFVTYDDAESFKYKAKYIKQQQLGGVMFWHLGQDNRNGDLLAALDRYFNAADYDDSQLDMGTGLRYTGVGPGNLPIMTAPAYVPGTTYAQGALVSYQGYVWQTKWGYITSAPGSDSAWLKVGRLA

[15] = target: Chitinase (Ostrinia furnacalis) (UniProt Q4AE59); test: Inhibition of Ostrinia furnacalis chitinase h catalytic domain overexpressed in Pichia pastoris at 1 uM using 4MU-(GlcNAc)2 as substrate after 30 mins by fluorescence based microplate reader analysis
Chain of Chitinase (Ostrinia furnacalis) (Q4AE59 as listed by the source): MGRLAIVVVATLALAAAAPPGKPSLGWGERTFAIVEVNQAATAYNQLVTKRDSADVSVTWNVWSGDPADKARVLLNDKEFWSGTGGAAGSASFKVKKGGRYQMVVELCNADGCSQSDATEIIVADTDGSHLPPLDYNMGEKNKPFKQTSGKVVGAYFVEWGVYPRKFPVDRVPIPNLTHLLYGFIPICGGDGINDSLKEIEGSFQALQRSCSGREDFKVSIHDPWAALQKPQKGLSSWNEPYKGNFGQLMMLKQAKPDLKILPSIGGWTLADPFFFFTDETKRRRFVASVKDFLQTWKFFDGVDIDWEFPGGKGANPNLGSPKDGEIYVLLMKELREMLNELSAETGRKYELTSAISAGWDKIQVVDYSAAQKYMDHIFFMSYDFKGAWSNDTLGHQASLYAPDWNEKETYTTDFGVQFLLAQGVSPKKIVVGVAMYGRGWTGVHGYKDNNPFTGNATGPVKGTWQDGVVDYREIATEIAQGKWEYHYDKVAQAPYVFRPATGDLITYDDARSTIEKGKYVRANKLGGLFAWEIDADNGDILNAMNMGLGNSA

Mus musculus [16] = test: Antifibrotic activity in bleomycin-induced C57BL/6 mouse model of pulmonary fibrosis assessed as effect on TGFbeta expression at 2 ug/mouse, ip administered for 11 days and measured on day 12 post treatment by RT-qPCR analysis; type: functional, organism-based
Mus musculus [17] = test: Antifibrotic activity in bleomycin-induced C57BL/6 mouse model of pulmonary fibrosis assessed as effect on IL5 expression at 2 ug/mouse, ip administered for 11 days and measured on day 12 post treatment by RT-qPCR analysis; type: functional, organism-based
Chitotriosidase-1 [18] = target: T2, Chitotriosidase-1; test: Inhibition of human CHIT1 catalytic domain overexpressed in Pichia pastoris at 50 uM using 4MU-(GlcNAc)2 as substrate after 30 mins by fluorescence based microplate reader analysis relative to control
Target sequence in this assay (Q13231 22-466 limits assumed): as the sequence (Q13231 22-466 limits assumed) above

Chitinase [19] = target: T4, Chitinase (Ostrinia furnacalis, UniProt Q4AE59); test: Inhibition of Ostrinia furnacalis chitinase h catalytic domain overexpressed in Pichia pastoris using 4MU-(GlcNAc)2 as substrate after 30 mins by fluorescence based microplate reader analysis
T4 sequence (Q4AE59 whole entry, the tested form may be a part): as the sequence (Q4AE59 as listed by the source) above

Chitotriosidase-1 [20] = target: Chitotriosidase-1 (Mus musculus, UniProt Q9D7Q1); test: Inhibition of mouse CHIT1 catalytic domain overexpressed in Pichia pastoris using 4MU-(GlcNAc)2 as substrate after 30 mins by fluorescence based microplate reader analysis
Chain of Chitotriosidase-1 (Mus musculus, UniProt Q9D7Q1) (Q9D7Q1 whole entry, the tested form may be a part): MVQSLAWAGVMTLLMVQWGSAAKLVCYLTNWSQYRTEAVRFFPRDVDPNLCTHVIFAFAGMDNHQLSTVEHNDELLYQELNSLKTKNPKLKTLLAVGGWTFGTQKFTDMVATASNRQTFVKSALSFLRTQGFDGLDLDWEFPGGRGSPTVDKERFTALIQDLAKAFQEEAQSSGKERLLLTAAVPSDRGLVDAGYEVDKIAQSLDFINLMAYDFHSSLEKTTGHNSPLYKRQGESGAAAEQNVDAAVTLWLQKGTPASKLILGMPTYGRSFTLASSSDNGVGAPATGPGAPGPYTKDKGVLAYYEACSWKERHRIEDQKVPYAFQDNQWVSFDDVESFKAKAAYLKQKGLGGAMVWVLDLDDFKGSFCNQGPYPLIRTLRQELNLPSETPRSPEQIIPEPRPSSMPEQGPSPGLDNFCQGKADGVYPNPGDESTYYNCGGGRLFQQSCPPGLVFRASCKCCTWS

[21] = target: Acidic mammalian chitinase (Mus musculus, UniProt Q91XA9); test: Inhibition of mouse acidic mammalian chitinase catalytic domain overexpressed in Pichia pastoris using 4MU-(GlcNAc)2 as substrate after 30 mins by fluorescence based microplate reader analysis
Chain of Acidic mammalian chitinase (Mus musculus, UniProt Q91XA9) (Q91XA9 whole entry, the tested form may be a part): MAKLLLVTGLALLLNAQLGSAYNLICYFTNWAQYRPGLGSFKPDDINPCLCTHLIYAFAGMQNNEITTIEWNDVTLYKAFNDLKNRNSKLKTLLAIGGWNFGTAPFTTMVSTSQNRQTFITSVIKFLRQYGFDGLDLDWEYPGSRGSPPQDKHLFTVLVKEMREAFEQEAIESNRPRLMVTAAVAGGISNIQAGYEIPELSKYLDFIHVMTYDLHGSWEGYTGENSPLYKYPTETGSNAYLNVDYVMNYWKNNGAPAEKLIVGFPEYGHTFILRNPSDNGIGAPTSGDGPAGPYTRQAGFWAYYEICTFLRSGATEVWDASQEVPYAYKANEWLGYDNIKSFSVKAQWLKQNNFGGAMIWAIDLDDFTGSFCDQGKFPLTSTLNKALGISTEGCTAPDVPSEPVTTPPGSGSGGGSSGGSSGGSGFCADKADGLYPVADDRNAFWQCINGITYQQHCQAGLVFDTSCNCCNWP

Chitinase B [22] = target: T5, Chitinase B (Serratia marcescens, UniProt P11797); test: Binding affinity to Serratia marcescens chitinase b catalytic domain overexpressed in Escherichia coli BL21(DE3) cells by isothermal titration calorimetry
T5 sequence (P11797 whole entry): T3 sequence (whole entry)

Chitotriosidase-1 [23] = target: T2, Chitotriosidase-1; test: Binding affinity to human CHIT1 catalytic domain overexpressed in Pichia pastoris assessed as association constant by isothermal titration calorimetry
Target sequence in this assay (Q13231 22-466 limits assumed): as the sequence (Q13231 22-466 limits assumed) above

Chitotriosidase-1 [24] = target: T2, Chitotriosidase-1; test: Inhibition of human CHIT1 catalytic domain overexpressed in Pichia pastoris using 4MU-(GlcNAc)2 as substrate after 30 mins by fluorescence based microplate reader analysis
Target sequence in this assay (Q13231 whole entry, the tested form may be a part): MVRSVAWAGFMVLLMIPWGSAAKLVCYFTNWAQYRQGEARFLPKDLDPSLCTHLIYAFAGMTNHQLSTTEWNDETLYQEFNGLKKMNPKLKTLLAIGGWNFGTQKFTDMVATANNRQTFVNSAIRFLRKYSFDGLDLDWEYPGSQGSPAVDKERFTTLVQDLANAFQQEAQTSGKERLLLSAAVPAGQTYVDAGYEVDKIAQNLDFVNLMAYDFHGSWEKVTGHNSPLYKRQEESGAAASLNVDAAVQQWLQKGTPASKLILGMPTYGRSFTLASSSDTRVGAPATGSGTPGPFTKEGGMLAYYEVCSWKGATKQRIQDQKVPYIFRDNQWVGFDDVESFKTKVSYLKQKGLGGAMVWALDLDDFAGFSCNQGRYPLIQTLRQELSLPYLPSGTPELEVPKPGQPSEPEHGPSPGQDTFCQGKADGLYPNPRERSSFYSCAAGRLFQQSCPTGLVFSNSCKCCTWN

[25] = target: T3, Chitinase B (Serratia marcescens); test: Binding affinity to Serratia marcescens chitinase b catalytic domain overexpressed in Escherichia coli BL21(DE3) cells assessed as association constant by isothermal titration calorimetry
Chitinase B [26] = target: T5, Chitinase B; test: Inhibition of Serratia marcescens chitinase b catalytic domain overexpressed in Escherichia coli BL21(DE3) cells using 4MU-(GlcNAc)2 as substrate after 30 mins by fluorescence based microplate reader analysis
Chitotriosidase-1 [27] = target: T2, Chitotriosidase-1; test: Binding affinity to human CHIT1 catalytic domain overexpressed in Pichia pastoris assessed by isothermal titration calorimetry
Target sequence in this assay (Q13231 whole entry, the tested form may be a part): as above

[28] = target: T1, Acidic mammalian chitinase; test: Inhibition of human acidic mammalian chitinase catalytic domain overexpressed in Pichia pastoris using 4MU-(GlcNAc)2 as substrate after 30 mins by fluorescence based microplate reader analysis
Target sequence in this assay (Q9BZP6 whole entry, the tested form may be a part): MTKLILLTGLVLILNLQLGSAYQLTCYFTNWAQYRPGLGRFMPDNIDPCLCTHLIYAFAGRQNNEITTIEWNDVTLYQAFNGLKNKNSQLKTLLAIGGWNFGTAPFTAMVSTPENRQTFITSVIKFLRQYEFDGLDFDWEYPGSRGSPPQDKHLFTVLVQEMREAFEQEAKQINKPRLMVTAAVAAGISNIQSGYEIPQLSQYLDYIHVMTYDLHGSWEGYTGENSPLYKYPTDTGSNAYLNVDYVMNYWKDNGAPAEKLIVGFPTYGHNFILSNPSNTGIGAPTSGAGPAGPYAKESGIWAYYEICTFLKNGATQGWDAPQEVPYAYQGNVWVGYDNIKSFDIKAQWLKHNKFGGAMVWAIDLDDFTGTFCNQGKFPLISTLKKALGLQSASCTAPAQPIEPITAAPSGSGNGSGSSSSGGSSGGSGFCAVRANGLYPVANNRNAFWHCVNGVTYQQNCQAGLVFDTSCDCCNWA

Chitinase [29] = target: T4, Chitinase; test: Binding affinity to Ostrinia furnacalis chitinase h catalytic domain overexpressed in Pichia pastoris by isothermal titration calorimetry

SMILES | inhibition [3] | inhibition (Chitotriosidase-1 [6]) | inhibition [14] | inhibition [15] | further results
CC(NC(=O)c1cc2c(=O)n3ccccc3nc2n(Cc2ccccc2)c1=N)c1ccccc1 (configuration not stated) | Active | Active | Active | Active | Activity (Mus musculus [1]): inactive; Activity (Mus musculus [2]): Active; Activity (Mus musculus [4]): inactive; inhibition [5]: 35%; inhibition (INH) (Mus musculus [7]): 100%; Activity (Mus musculus [8]): Active; Activity (Mus musculus [9]): Active; Activity (Mus musculus [10]): inactive; Activity (Mus musculus [11]): Active; inhibition [12]: 87.8%; inhibition [13]: 55%; Activity (Mus musculus [16]): inactive; Activity (Mus musculus [17]): inactive
COCCCn1c(=N)c(C(=O)N[C@@H](C)c2ccccc2)cc2c(=O)n3ccccc3nc21 | Active | Active | Active | Active | –
CCOC(=O)c1cc2c(=O)n3ccccc3nc2n(Cc2ccco2)c1=N | inactive | inactive | inactive | inactive | –
C[C@@H](NC(=O)c1cc2c(=O)n3ccccc3nc2n(C[C@H]2CCCO2)c1=N)c1ccccc1 | Active | Active | Active | Active | –
Cc1cccn2c(=O)c3cc(C#N)c(=N)n(Cc4cccnc4)c3nc12 | inactive | inactive | inactive | inactive | –
N=c1c(C(=O)NC2CCCCC2)cc2c(=O)n3ccccc3nc2n1Cc1cccnc1 | inactive | inactive | inactive | inactive | –
Cc1cccn2c(=O)c3cc(C(=O)NCc4cccnc4)c(=N)n(Cc4ccco4)c3nc12 | Active | Active | Active | Active | –
Cc1cccn2c(=O)c3cc(C#N)c(=N)n(Cc4ccccc4)c3nc12 | inactive | inactive | inactive | inactive | –
CNC(=O)c1cc2c(=O)n3cc(C)ccc3nc2n(Cc2cccnc2)c1=N | inactive | inactive | inactive | inactive | –
COCCCn1c(=N)c(C(=O)NCc2ccc(F)cc2)cc2c(=O)n3ccccc3nc21 | inactive | inactive | inactive | inactive | –
Cc1cccn2c(=O)c3cc(C(=O)N[C@H](C)c4ccccc4)c(=N)n(C[C@H]4CCCO4)c3nc12 | Active | Active | Active | Active | –
N=c1c(C(=O)NCc2cccnc2)cc2c(=O)n3ccccc3nc2n1Cc1ccccc1 | Active | Active | Active | Active | –
Cc1ccc2nc3c(cc(C(=O)N[C@H](C)c4ccccc4)c(=N)n3C[C@H]3CCCO3)c(=O)n2c1 | Active | Active | Active | Active | –
COCCCn1c(=N)c(C(=O)NCc2cccnc2)cc2c(=O)n3ccccc3nc21 | inactive | inactive | inactive | inactive | –
COCCn1c(=N)c(C(=O)NCCN2CCCCC2)cc2c(=O)n3ccccc3nc21 | inactive | inactive | inactive | inactive | –
Cc1ccc2nc3c(cc(C(=O)NCc4cccnc4)c(=N)n3C[C@H]3CCCO3)c(=O)n2c1 | Active | Active | Active | Active | –
COCCCn1c(=N)c(C(=O)NCc2ccc(OC)cc2)cc2c(=O)n3ccccc3nc21 | inactive | inactive | inactive | inactive | –
N=c1c(C(=O)NCC2CCCO2)cc2c(=O)n3ccccc3nc2n1Cc1ccco1 (configuration not stated) | – | – | – | – | inhibition (Chitotriosidase-1 [18]): 100%
C=CCn1c(=N)c(C(=O)N2CCN(C)CC2)cc2c(=O)n3cccc(C)c3nc21 | inactive | inactive | inactive | inactive | –
COCCCn1c(=N)c(-c2nc3ccccc3s2)cc2c(=O)n3ccccc3nc21 | inactive | inactive | inactive | inactive | –
COC(=O)c1cc2c(=O)n3ccccc3nc2n(Cc2cccnc2)c1=N | inactive | inactive | inactive | inactive | –
COCCCn1c(=N)c(C(=O)NCc2ccc(C)cc2)cc2c(=O)n3ccccc3nc21 | inactive | inactive | inactive | inactive | –
Cc1cccn2c(=O)c3cc(C(=O)NCc4cccnc4)c(=N)n(CC4CCCO4)c3nc12 (configuration not stated) | Active | Active | Active | Active | Ki (Chitinase [19]): 9 nM; Ki (Chitotriosidase-1 [20]): 1940 nM; Ki [21]: 1380 nM; Kd (Chitinase B [22]): 190 nM; Ka (Chitotriosidase-1 [23]): 895000 M⁻¹; Ki (Chitotriosidase-1 [24]): 1120 nM; Ka [25]: 5.1e+06 M⁻¹; Ki (Chitinase B [26]): 58 nM; Kd (Chitotriosidase-1 [27]): 1120 nM; Ki [28]: 9720 nM; Kd (Chitinase [29]): 85 nM
Cc1cccn2c(=O)c3cc(C(=O)NCc4cccnc4)c(=N)n(Cc4ccc(F)cc4)c3nc12 | Active | Active | Active | Active | –
